According to ChEMBL document CHEMBL1150785 (Antimicrob Agents Chemother, 2007):
Converted amounts (≈) assume the structure as drawn.

What was measured:
Type in all cases: functional
[1] = test system: Mycobacterium tuberculosis; assay: Antimicrobial activity against Mycobacterium tuberculosis in mouse assessed as microbial kill activity
[2] = test system: Mycobacterium tuberculosis; assay: Antimicrobial activity against Mycobacterium tuberculosis H37Ra assessed as microbial kill activity
[3] = test system: Mycobacterium tuberculosis; assay: Antimicrobial activity against Mycobacterium tuberculosis H37Ra
[4] = test system: Mycobacterium tuberculosis; assay: Antimicrobial activity against Mycobacterium tuberculosis H37Ra assessed as early bactericidal activity

NNC(=O)c1ccncc1 [ISONIAZID]
log10cfu [1]: 1.3
log10CFU/ml [2]: 2.89
MIC [3]: 0.0156 µg/mL (≈ 0.114 µM)
log10CFU/ml/day [4]: 0.9
